{
  "source": "patent US7514429B2",
  "about": "“Benzoxazinone-derived compounds, their preparation and use as medicaments” (ESTEVE Laboratorios Dr. Esteve S.A., priority 2002, dated 2009)",
  "key": {"[1]": {"target": "T1, Neuropeptide Y2 (Rattus norvegicus, UniProt Q9ERC0)", "T1 construct": "their brains are rapidly removed and the hypoccampus is dissected; from tissue; host or cells: rat hippocampus membranes (male Wistar rats)", "T1 sequence (Q9ERC0 1-381)": "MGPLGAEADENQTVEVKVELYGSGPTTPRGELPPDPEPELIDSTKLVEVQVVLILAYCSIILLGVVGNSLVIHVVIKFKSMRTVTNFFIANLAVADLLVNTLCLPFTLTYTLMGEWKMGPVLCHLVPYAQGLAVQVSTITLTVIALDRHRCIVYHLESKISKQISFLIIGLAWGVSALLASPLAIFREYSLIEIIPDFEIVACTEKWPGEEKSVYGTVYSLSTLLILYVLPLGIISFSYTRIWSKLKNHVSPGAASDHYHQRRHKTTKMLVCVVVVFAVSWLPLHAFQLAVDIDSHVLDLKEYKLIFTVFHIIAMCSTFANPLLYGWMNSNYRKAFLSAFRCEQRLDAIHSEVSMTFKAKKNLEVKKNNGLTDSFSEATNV", "test": "Binding to Neuropeptide Y2, Method (III), rat hypoccampus membranes", "conditions": "[125I]-PYY(3-36)", "method": "Binding to Neuropeptide Y2\nSaid literature description is herewith incorporated by reference and forms part of the disclosure.\nMale Wistar rats are sacrificed by decapitation, their brains are rapidly removed and the hypoccampus is dissected. Homogenization is performed in cold conditions in the buffer: 120 mM NaCl, 4.7 mM KCl, 2.2 mM CaCl2, 1.2 mM KH2PO4, 1.2 mM MgSO4, 25 mM NaHCO3, 5.5 mM glucose, pH 7.4, by means of a Ultra-Turrax homogenizer for 15 seconds at 13,500 rpm. The ratio between fresh tissue weight and buffer volume is of ten times. The membrane is centrifuged for 10 min at 48,000 g. The supernatant is discarded and the pellet is washed, resuspended and recentrifuged two more times. The final membrane resuspension is performed in the buffer: 120 mM NaCl, 4.7 mM KCl, 2.2 mM CaCl2, 1.2 mM KH2PO4, 1.2 mM MgSO4, 25 mM NaHCO3, 5.5 mM glucose, 0.1% BSA, 0.05% bacitracin, pH 7.4, at a 90 ml/g ratio of fresh issue. […] Incubation volume: 500 μl. […] The filters are cold-washed three times with three milliliters of the same buffer used in homogenization. […] Non-specific binding is determined in the presence of 1 μM of pNPY (Neuropeptide Y of porcine origin). The assays are performed in triplicate."}, "[2]": {"tested_on": "rats", "test": "Nocturnal feeding (food intake measurement)", "assay_type": "in vivo, rat", "conditions": "vs. control group", "method": "Behavioural Models (Food Intake Measurements)\nIn both test, animals rats (Male W, 200-270 g, obtained from Harlan, S. A) were used. The rats are acclimatized to the animal facility for at least 5 days before being subjected to any experimental procedure. During this period, animals were housed in groups of five in translucid cages and provided with food and water ad libitum. At least 24 hours before the tests, animals are adapted to single-housing conditions.\nFood intake is measured in home cages in order to minimize non-specific stress effects on food intake resulting from changes in housing conditions. Food and water is available ad libitum. Immediately before lights turn off, rats are weighed, randomized and dosed (orally or intraperitoneally), either with vehicle or selected benzoxacine-compounds of general formula (I). Thereafter, rats are returned to home cages and food left on top covers is measured. Remaining food and animal's weight is measured next morning.\nThe above mentioned methods are described in Ants Kask et al., Europan Journal of Pharmacology 414 (2001) 215-224 and Turnbull et al., Diabetes, Vol. 51, August 2002, which are hereby incorporated by reference and form part of the disclosure."}, "[3]": {"target": "T2, rat Y5 receptor (Rattus norvegicus, UniProt Q63634)", "T2 construct": "expressed in transfected cells; host or cells: C6 cells", "T2 sequence (Q63634 1-445)": "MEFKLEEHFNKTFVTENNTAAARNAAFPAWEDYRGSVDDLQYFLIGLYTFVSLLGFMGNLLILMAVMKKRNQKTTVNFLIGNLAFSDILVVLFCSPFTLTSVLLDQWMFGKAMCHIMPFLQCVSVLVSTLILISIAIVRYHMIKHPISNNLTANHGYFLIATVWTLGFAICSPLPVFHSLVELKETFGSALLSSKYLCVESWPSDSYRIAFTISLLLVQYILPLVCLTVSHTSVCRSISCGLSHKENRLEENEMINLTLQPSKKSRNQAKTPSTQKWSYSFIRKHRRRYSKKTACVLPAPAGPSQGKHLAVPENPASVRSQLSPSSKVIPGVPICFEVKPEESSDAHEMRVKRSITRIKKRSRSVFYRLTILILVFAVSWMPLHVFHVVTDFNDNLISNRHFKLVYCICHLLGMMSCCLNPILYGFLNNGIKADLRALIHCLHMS", "test": "Neuropeptide Y5 receptor binding, Method (II), C6 cells transfected with the rat Y5 receptor", "conditions": "[125I]-PYY, Y5 rat recombinant receptor, cell C6", "method": "Neuropeptide Y5 Receptor Binding Studies:\nThe methods used for membrane preparation and binding are similar to those described by Y. Hu, B. T. Bloomquist et al. in Y. Hu, B. T. Bloomquist et al., The Journal of Biological Chemistry, 1996, 271, 26315-26319 with modifications. Said literature description is herewith incorporated by reference and forms part of the disclosure. Cells C6 were transfected with the rat Y5 receptor. The cells were grown under standard culture conditions in 150 cm^2 dishes and they were harvested using a rubber scraper and 10 ml PBS. The cells from five dishes were collected and centrifuged 2.500 g for 5 min (4° C). The pellet was washed by resuspending in 3 ml buffer (Tris-HCl 10 mM, pH 7.4), homogenized using a Potter S homogenizer, 10 strokes at 600 rpm and centrifuged 48.000 g for 20 min (4° C.). The pellet was resuspended in 8 ml membrane buffer (Tris-HCl 25 mM, NaCl 120 mM, KCl 5 mM, KH2PO4 1.2 mM, CaCl2 2.5 mM, MgSO4 1.2 mM, BSA 0.15 mg/ml, Bacitracine 0.5 mg/ml, pH 7.4) and rehomogenized using the Potter S, 10 strokes at 600 rpm. The protein concentration in the incubation was 40 μg/ml. The radioligand was [^125I]-PYY (100 pM) in a total incubation volume of 200 μl. Following incubation at 25° C. for 2 h, the reaction was stopped by addition of 5 ml ice-cold buffer (Tris-HCl 25 mM, NaCl 120 mM, KCl 5 mM, KH2PO4 1.2 mM, CaCl2 2.5 mM, MgSO4 1.2 mM, pH 7.4) and rapid filtration in a Harvester Brandell Cell using filters (Schleicher & Schuell G F 3362) pretreated for two hours with 0.5% polyethyleneimine. Filters were washed one time with 5 ml ice-cold buffer. The filters were placed into plastic scintilation vials and 5 ml scintilation cocktail Ecoscint H were added. The quantity of radioactivity present was determined in a Wallac Winspectral 1414 counter. Non specific binding was determined in the presence of 1 μM de pNPY. All binding assays were done in triplicate."}},
  "note": "Structures can show the parent of a compound that is named as a salt.",
  "data": [
    {"smiles": "Cc1cccc2c1N(C1CCN(CC(=O)Nc3ccc4c(c3)-c3ccccc3C4=O)CC1)C(=O)OC2", "note": "(as salt: HCl) [Example 35, 2-[4-(8-Methyl-2-oxo-4H-benzo[d][1,3]oxazin-1-yl)-piperidin-1-yl]-N-(9-oxo-9H-fluoren-3-yl)-acetamide hydrochloride]", "values": [
      {"measurement": "melting point", "value": "233 to 236", "unit": "°C"}
    ]},
    {"smiles": "O=C(CN1CCC(N2C(=O)OCc3ccccc32)CC1)Nc1ccc2c(c1)-c1ccccc1C2=O", "note": "[Example 3, 2-[4-(2-oxo-4H-benzo[d][1,3]oxazin-1-yl)-piperidin-1-yl]-N-(9-oxo-9H-fluoren-3-yl)-acetamide hydrochloride]", "values": [
      {"measurement": "Ki", "setting": "[1]", "value": "> 1000", "unit": "nM"}
    ]},
    {"smiles": "CCn1c2ccccc2c2cc(NC(=O)CN3CCC(N4C(=O)OCc5ccccc54)CC3)ccc21", "note": "[Example 18, N-(9-Ethyl-9H-carbazol-3-yl)-2-[4-(2-oxo-4H-benzo[d][1,3]oxazin-1-yl)-piperidin-1-yl]-acetamide hydrochloride]", "values": [
      {"measurement": "Effect: body weight of treated animals", "setting": "[2]; 40 mg/kg i.p. administration", "value": "reduces body weight of"},
      {"measurement": "Effect: food intake", "setting": "[2]; 40 mg/kg i.p. administration", "value": "Decreases food intake and"}
    ]},
    {"smiles": "Cc1ccc2c(c1)COC(=O)N2C1CCN(CC(=O)Nc2ccc3c(c2)-c2ccccc2C3=O)CC1", "note": "[Example 20, 2-[4-(6-methyl-2-oxo-4H-benzo[d][1,3]oxazin-1-yl)-piperidin-1-yl]-N-(9-oxo-9H-fluoren-3-yl)-acetamide hydrochloride]", "values": [
      {"measurement": "Effect: body weight of treated animals", "setting": "[2]; 40 mg/kg i.p. administration", "value": "reduces body weight of"},
      {"measurement": "Effect: food intake", "setting": "[2]; 40 mg/kg i.p. administration", "value": "Decreases food intake and"},
      {"measurement": "Ki", "setting": "[1]", "value": "> 1000", "unit": "nM"}
    ]},
    {"smiles": "Cc1cccc2c1N(C1CCN(CC(=O)Nc3ccc4c(c3)-c3ccccc3C4=O)CC1)C(=O)OC2", "note": "[Example 35, 2-[4-(8-Methyl-2-oxo-4H-benzo[d][1,3]oxazin-1-yl)-piperidin-1-yl]-N-(9-oxo-9H-fluoren-3-yl)-acetamide hydrochloride]", "values": [
      {"measurement": "Effect: body weight of treated animals", "setting": "[2]; 20 mg/kg i.p. administration", "value": "reduces body weight of"},
      {"measurement": "Effect: food intake", "setting": "[2]; 20 mg/kg i.p. administration", "value": "Decreases food intake and"}
    ]},
    {"smiles": "COc1cccc2c1COC(=O)N2C1CCN(CC(=O)Nc2ccc3sc4ccccc4c3c2)CC1", "note": "[Example 107, N-Dibenzothiophene-2-yl-2-[4-(5-methoxy-2-oxo-4H-benzo[d][1,3]oxazin-1-yl)-piperidin-1-yl]-acetamide]", "values": [
      {"measurement": "IC50", "setting": "[3]", "value": 23.5, "unit": "nM"}
    ]},
    {"smiles": "Cc1nc2cc(NC(=O)CN3CCC(N4C(=O)OCc5cc(F)ccc54)CC3)ccc2s1", "note": "[Example 114, 2-[4-(6-Fluoro-2-oxo-4H-benzo[d][1,3]oxazin-1-yl)-piperidin-1-yl]-N-(2-methyl-benzothiazole-5-yl)-acetamide]", "values": [
      {"measurement": "IC50", "setting": "[3]", "value": 40.7, "unit": "nM"}
    ]},
    {"smiles": "COc1ccc2c(c1)COC(=O)N2C1CCN(CC(=O)Nc2ccc3sc(C)nc3c2)CC1", "note": "[Example 116, 2-[4-(6-Methoxy-2-oxo-4H-benzo[d][1,3]oxazin-1-yl)-piperidin-1-yl]-N-(2-methyl-benzothiazole-5-yl)-acetamide]", "values": [
      {"measurement": "IC50", "setting": "[3]", "value": 106, "unit": "nM"}
    ]}
  ]
}
